Drawing on US8278306B2 (Vertex Pharmaceuticals Incorporated, priority 2006, dated 2012), this text covers Ki for 76 molecules.

Bounds are passed on as bounds.

In this assay the target is T1, ROCK I (AA 6-553) (Homo sapiens, UniProt Q13464).
T1 construct: ROCK I (AA 6-553)
T1 sequence (Q13464 6-553, species assumed): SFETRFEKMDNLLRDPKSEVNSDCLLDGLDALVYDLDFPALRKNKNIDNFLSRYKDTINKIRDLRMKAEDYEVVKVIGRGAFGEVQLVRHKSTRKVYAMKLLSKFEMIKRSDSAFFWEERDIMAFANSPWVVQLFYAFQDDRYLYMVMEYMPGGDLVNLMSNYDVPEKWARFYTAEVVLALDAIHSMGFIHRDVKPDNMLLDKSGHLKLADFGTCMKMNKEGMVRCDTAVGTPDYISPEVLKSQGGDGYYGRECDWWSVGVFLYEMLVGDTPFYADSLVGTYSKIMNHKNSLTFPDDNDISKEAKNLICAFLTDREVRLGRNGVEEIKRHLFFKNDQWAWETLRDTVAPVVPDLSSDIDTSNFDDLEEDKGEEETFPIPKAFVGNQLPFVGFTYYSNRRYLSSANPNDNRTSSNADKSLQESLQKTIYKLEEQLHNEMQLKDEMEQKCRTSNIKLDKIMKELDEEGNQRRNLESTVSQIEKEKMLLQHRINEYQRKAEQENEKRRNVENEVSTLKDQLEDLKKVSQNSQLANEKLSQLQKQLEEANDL
The assay can be described thus: ROCK inhibition assay, standard coupled enzyme system. In kind it is biochemical. The note with it: 45 nM ROCK I, 45 μM ATP, 200 μM peptide, 30° C. The protocol:
Reactions were carried out in a solution containing 100 mM HEPES (pH 7.5), 10 mM MgCl2, 25 mM NaCl, 2 mM DTT and 1.5% DMSO.
As usually defined, the Ki is a dissociation constant, usually derived from enzyme kinetics or from competition with a known ligand. A high value points to lower affinity. `O=C(Cc1ccc(F)cc1)Nc1nc(-c2ccnc(Cl)c2)cs1` [Compound 2] gave a Ki of 100 to 1000 nM. The same measure for `COc1cc(-c2csc(NC(=O)Cc3ccc(F)cc3)n2)ccn1` [Compound 4]: over 1000 nM; for `CCOc1cc(-c2csc(NC(=O)Cc3cccc(OC)c3)n2)ccn1` [Compound 5]: over 1000 nM; for `CCOc1cc(-c2csc(NC(=O)Cc3cc4c(cc3Cl)OCO4)n2)ccn1` [Compound 6]: over 1000 nM.

The molecule `CCOc1cc(-c2csc(NC(=O)Cc3ccc(F)cc3)n2)ccn1` [Compound 7] returned a Ki of over 1000 nM. In the case of `CCOc1cc(-c2csc(NC(=O)Cc3ccccc3Cl)n2)ccn1` [Compound 8] it was over 1000 nM.

For `O=C(Cc1ccccc1Cl)Nc1nc(-c2ccnc(Cl)c2)cs1` [Compound 10], the Ki lay in the range of 100 to 1000 nM. In the case of `CN(C)c1cc(-c2csc(NC(=O)Cc3ccccc3Cl)n2)ccn1` [Compound 11] it was over 1000 nM.

In the case of `CN(C)c1cc(-c2csc(NC(=O)Cc3cc4c(cc3Cl)OCO4)n2)ccn1` [Compound 12], the Ki was over 1000 nM.

As for `COc1cccc(CC(=O)Nc2nc(-c3ccnc(NCc4ccccc4)c3)cs2)c1` [Compound 14], the Ki was over 1000 nM. In the case of `CCNc1cc(-c2csc(NC(=O)Cc3cccc(OC)c3)n2)ccn1` [Compound 15] it was 100 to 1000 nM; in that of `Nc1cc(-c2csc(NC(=O)Cc3ccc(F)cc3F)n2)ccn1` [Compound 16], under 100 nM; in that of `Nc1cc(-c2csc(NC(=O)Cc3cc4c(cc3Cl)OCO4)n2)ccn1` [Compound 17], under 100 nM.

Turning to `CCNc1cc(-c2csc(NC(=O)Cc3ccc(F)cc3F)n2)ccn1` [Compound 21], the Ki is 100 to 1000 nM.

`CCNc1cc(-c2csc(NC(=O)Cc3cc4c(cc3Cl)OCO4)n2)ccn1` [Compound 22]: the Ki fell in the range of 100 to 1000 nM. In the case of `CNc1cc(-c2csc(NC(=O)Cc3ccc(F)cc3F)n2)ccn1` [Compound 23] it was 100 to 1000 nM. Molecule `Nc1cc(-c2csc(NC(=O)Cc3cccc(OCCCCl)c3)n2)ccn1` [Compound 24] had a Ki of 100 to 1000 nM.

Take `O=C(Cc1ccc(F)cc1F)Nc1nc(-c2ccnc(NCc3ccccc3)c2)cs1` [Compound 25]: the Ki lay within 100 to 1000 nM. With `O=C(Cc1cc2c(cc1Cl)OCO2)Nc1nc(-c2ccnc(NCc3ccccc3)c2)cs1` [Compound 26], the Ki lay within 100 to 1000 nM. In turn, `Nc1cc(-c2csc(NC(=O)Cc3ccccc3Cl)n2)ccn1` [Compound 27] displayed a Ki of under 100 nM.

Consider `CNc1cc(-c2csc(NC(=O)Cc3ccccc3Cl)n2)ccn1` [Compound 28], for which the Ki lay within 100 to 1000 nM. The same measure for `CCNc1cc(-c2csc(NC(=O)Cc3ccccc3Cl)n2)ccn1` [Compound 29]: 100 to 1000 nM; for `Cc1cc(-c2csc(NC(=O)Cc3ccc(F)cc3F)n2)ccn1` [Compound 30]: 100 to 1000 nM.

`Cc1cc(-c2csc(NC(=O)Cc3cc4c(cc3Cl)OCO4)n2)ccn1` [Compound 32]: the Ki is under 100 nM. In the case of `Cc1cc(-c2csc(NC(=O)Cc3ccccc3Cl)n2)ccn1` [Compound 33] it was 100 to 1000 nM; in that of `Nc1cc(-c2csc(NC(=O)Cc3cccc(O)c3)n2)ccn1` [Compound 34], under 100 nM; in that of `Nc1cc(-c2csc(NC(=O)Cc3ccccc3F)n2)ccn1` [Compound 35], under 100 nM. The same measure for `Cc1cc(-c2csc(NC(=O)Cc3ccccc3)n2)ccn1` [Compound 36]: 100 to 1000 nM. The molecule `Cc1cc(-c2csc(NC(=O)Cc3cccc(O)c3)n2)ccn1` [Compound 37] displayed an inhibition constant Ki of under 100 nM. In turn, `Cc1cc(-c2csc(NC(=O)Cc3ccccc3F)n2)ccn1` [Compound 38] had a Ki of 100 to 1000 nM. In the case of `Cc1cc(-c2csc(NC(=O)Cc3cccc(OCCCN4CCN(C)CC4)c3)n2)ccn1` [Compound 39] it was 100 to 1000 nM. In the case of `Cc1cc(-c2csc(NC(=O)Cc3ccc(F)cc3)n2)ccn1` [Compound 40] it was 100 to 1000 nM.

`Nc1cc(-c2csc(NC(=O)Cc3ccccc3)n2)ccn1` [Compound 41] registered a Ki of under 100 nM. In the case of `Nc1cc(-c2csc(NC(=O)Cc3ccc(F)cc3)n2)ccn1` [Compound 42] it was 100 to 1000 nM; in that of `CS(=O)(=O)Nc1ccc(CC(=O)Nc2nc(-c3ccnc(N)c3)cs2)cc1` [Compound 43], 100 to 1000 nM. As for `Cc1cc(-c2csc(NC(=O)Cc3ccc(NS(C)(=O)=O)cc3)n2)ccn1` [Compound 44], the inhibition constant Ki is 100 to 1000 nM. The same measure for `CN1CCN(CCCOc2cccc(CC(=O)Nc3nc(-c4ccnc(N)c4)cs3)c2)CC1` [Compound 45]: under 100 nM; for `O=C(Cc1ccccc1F)Nc1nc(-c2ccnc(Cl)c2)cs1` [Compound 46]: 100 to 1000 nM.

In the case of `O=C(Cc1ccc(F)cc1F)Nc1nc(-c2ccnc(Cl)c2)cs1` [Compound 47], the inhibition constant Ki lay within 100 to 1000 nM. The same measure for `O=C(Cc1cccc(O)c1)Nc1nc(-c2ccnc(Cl)c2)cs1` [Compound 48]: under 100 nM. In the case of `O=C(Cc1cc2c(cc1Cl)OCO2)Nc1nc(-c2ccnc(Cl)c2)cs1` [Compound 49] it was under 100 nM; in that of `O=C(Cc1ccccc1)Nc1nc(-c2ccnc(Cl)c2)cs1` [Compound 50], 100 to 1000 nM. The same measure for `CS(=O)(=O)Nc1cccc(CC(=O)Nc2nc(-c3ccnc(Cl)c3)cs2)c1` [Compound 51]: 100 to 1000 nM. Molecule `Nc1cc(-c2csc(NC(=O)Cc3cccc(OCCCN4CCNCC4)c3)n2)ccn1` [Compound 52] yielded a Ki of under 100 nM. The same measure for `CN1CCN(CCCOc2cccc(CC(=O)Nc3nc(-c4ccnc(Cl)c4)cs3)c2)CC1` [Compound 53]: under 100 nM.

For the molecule `CCN1CCN(CCCOc2cccc(CC(=O)Nc3nc(-c4ccnc(Cl)c4)cs3)c2)CC1` [Compound 54], the inhibition constant Ki is under 100 nM. The same measure for `O=C(Cc1cccc(OCCCN2CCNCC2)c1)Nc1nc(-c2ccnc(Cl)c2)cs1` [Compound 55]: under 100 nM; for `O=C(Cc1ccccc1F)Nc1nc(-c2ccnc(F)c2)cs1` [Compound 56]: under 100 nM; for `O=C(Cc1ccc(F)cc1)Nc1nc(-c2ccnc(F)c2)cs1` [Compound 57]: 100 to 1000 nM. `O=C(Cc1ccc(F)cc1F)Nc1nc(-c2ccnc(F)c2)cs1` [Compound 58] registered a Ki of under 100 nM. Molecule `CS(=O)(=O)Nc1cccc(CC(=O)Nc2nc(-c3ccnc(F)c3)cs2)c1` [Compound 59] registered a Ki of under 100 nM. For the molecule `CN1CCN(CCCOc2cccc(CC(=O)Nc3nc(-c4ccnc(F)c4)cs3)c2)CC1` [Compound 60], the Ki was under 100 nM. The same measure for `O=C(Cc1ccccc1)Nc1cc(-c2ccnc(F)c2)cs1` [Compound 66]: under 100 nM; for `O=C(Cc1ccc(F)cc1)Nc1cc(-c2ccnc(F)c2)cs1` [Compound 67]: under 100 nM. In the case of `CS(=O)(=O)Nc1ccc(F)c(CC(=O)Nc2cc(-c3ccnc(F)c3)cs2)c1` [Compound 68] it was under 100 nM; in that of `O=C(Cc1ccc(F)cc1F)Nc1cc(-c2ccnc(F)c2)cs1` [Compound 69], under 100 nM. The same measure for `CCN(CC)S(=O)(=O)c1cccc(CC(=O)Nc2cc(-c3ccnc(F)c3)cs2)c1` [Compound 70]: under 100 nM; for `O=C(Cc1cccc(S(=O)(=O)N2CCOCC2)c1)Nc1cc(-c2ccnc(F)c2)cs1` [Compound 71]: 100 to 1000 nM.

The molecule `CS(=O)(=O)Nc1ccc(F)c(CC(=O)Nc2cc(-c3ccnc(N)c3)cs2)c1` [Compound 76] returned a Ki of under 100 nM.

As for `CN(C)S(=O)(=O)c1cccc(CC(=O)Nc2cc(-c3ccnc(F)c3)cs2)c1` [Compound 78], the Ki was in the range of 100 to 1000 nM. `CN(C)S(=O)(=O)c1cccc(CC(=O)Nc2cc(-c3ccnc(N)c3)cs2)c1` [Compound 79]: the Ki was 100 to 1000 nM. The same measure for `Cc1cc(-c2csc(NC(=O)Cc3ccccc3F)c2)ccn1` [Compound 81]: 100 to 1000 nM.

In turn, `Cc1cc(-c2csc(NC(=O)Cc3cccc(NS(C)(=O)=O)c3)c2)ccn1` [Compound 82] gave a Ki of 100 to 1000 nM.

Molecule `Cc1cc(-c2csc(NC(=O)Cc3cccc(S(=O)(=O)N(C)C)c3)c2)ccn1` [Compound 83] yielded a Ki of over 1000 nM. Molecule `Cc1cc(-c2csc(NC(=O)Cc3cccc(NS(=O)(=O)N(C)C)c3)c2)ccn1` [Compound 84] displayed a Ki of 100 to 1000 nM. In the case of `Cc1cc(-c2csc(NC(=O)Cc3cc(NS(C)(=O)=O)ccc3F)c2)ccn1` [Compound 86] it was under 100 nM. Consider `Cc1cc(-c2csc(NC(=O)Cc3ccccc3)c2)ccn1` [Compound 87], for which the Ki lay in the range of 100 to 1000 nM. In the case of `O=C(Cc1cccc(O)c1)Nc1cc(-c2ccnc(F)c2)cs1` [Compound 88] it was under 100 nM; in that of `O=C(Cc1ccc(OCCN2CCNCC2)cc1Cl)Nc1cc(-c2ccnc(Cl)c2)cs1` [Compound 95], under 100 nM.

In turn, `CN1CCN(CCOc2ccc(CC(=O)Nc3cc(-c4ccnc(Cl)c4)cs3)c(Cl)c2)CC1` [Compound 96] displayed a Ki of under 100 nM.

`O=C(Cc1ccc(OCCCN2CCNCC2)cc1Cl)Nc1cc(-c2ccnc(Cl)c2)cs1` [Compound 97] registered a Ki of under 100 nM. In the case of `CN1CCN(CCCOc2ccc(CC(=O)Nc3cc(-c4ccnc(Cl)c4)cs3)c(Cl)c2)CC1` [Compound 98] it was under 100 nM. The same measure for `O=C(Cc1ccc(OCCCC2CCNCC2)cc1)Nc1cc(-c2ccnc(Cl)c2)cs1` [Compound 99]: under 100 nM; for `CS(=O)(=O)Nc1ccc(F)c(CC(=O)Nc2cc(-c3ccnc(Cl)c3)cs2)c1` [Compound 100]: under 100 nM. The same measure for `NCCC(C(=O)Nc1cc(-c2ccnc(Cl)c2)cs1)c1ccc(F)cc1F` (stereo not shown) [Compound 104]: 100 to 1000 nM. Consider `CN1CCN(CCOc2cccc(CC(=O)Nc3cc(-c4ccnc(N)c4)cs3)c2)CC1` [Compound 106], for which the Ki is under 100 nM.
